From patent US11497819B2, “PSMA ligands for imaging and endoradiotherapy” (priority 2017, dated 2022)
“And” between values parts separate entries of the source, which are not always exact repeats. Equal values may be shown once. Read-outs that look alike come from different tables or passages of the source. *1 amine or outer side, *2 acyl side, *3 side chain or, on linkers, in order; H or OH if unused. Where a SMILES comes first, the peptide text is derived from it. Side-chain parts run from the residue outwards. [ ]: non-standard residue; d: D form. The star is where a group is joined. ξ: configuration not given here. ξOrn(Nα-γGlu(Nα-CO-Glu)) = O=C(O)CC[C@H](NC(=O)N[C@@H](CCC(=O)NC(CCCN*)C(=O)O)C(=O)O)C(=O)O; DOTAGA = O=C(O)CN1CCN(CC(=O)O)CCN(C(CCC(=O)*)C(=O)O)CCN(CC(=O)O)CC1; Phe(4-NO2) = N[C@@H](Cc1ccc([N+](=O)[O-])cc1)C(=O)O; X1 = O=C(c1ccc([N+](=O)[O-])cc1[N+](=O)[O-])*; d2Nal = N[C@H](Cc1ccc2ccccc2c1)C(=O)O; Suc = O=C(CCC(=O)[*:2])[*:1]; Dap = NC[C@H](N)C(=O)O

Experiments:
[1] = tested on: LNCaP cells; test: Internalization into LNCaP cells, relative cellular uptake to ([^125I]I-BA)KuE; assay type: cell-based; details: c = 1.0 nM ^177Lu-labeled inhibitor, 37° C., 60 min, corrected for non-specific binding (10 μM 2-PMPA), mean ± SD (n = 3)
Procedure: PSMA-positive LNCAP cells (300265; Cell Lines Service GmbH) were cultivated in Dulbecco modified Eagle medium/Nutrition Mixture F-12 (1/1) (DMEM-F12, Biochrom) supplemented with fetal calf serum (FCS) (10%, Biochrom) and kept at 37° C. in a humidified CO2 atmosphere (5%). One day (24 h±2 h) prior to all experiments with LNCaP cells, the cultivated cells were harvested using a mixture of trypsin/ethylendiaminetetraacetate (0.05%/0.02%) and PBS and centrifuged. After centrifugation, the supernatant was disposed and the cell pellet resuspended in culture medium. Afterwards, cells were counted with a hemocytometer (Neubauer) and seeded in 24-well plates.
Subsequent to the removal of the culture medium, the cells were washed once with DMEM-F12-solution (500 μL, 5% BSA) and left to equilibrate for at least 15 min at 37° C. in DMEM-F12-solution (200 μL, 5% BSA). Afterwards, each well was treated with either DMEM-F12-solution (25 μL, 5% BSA) or 2-PMPA-solution (25 μL, 100 μm) for blockade. […] The experiment was terminated by placing the 24-well plate on ice for 3 min and the consecutive removal of the medium. Each well was rinsed with HBSS (250 μL) and the fractions from these first two steps combined, representing the amount of free radioligand. Removal of surface bound activity was accomplished by incubation of the cells with ice-cold 2-PMPA-solution (250 μL, 10 μm in PBS) for 5 min and subsequent rinsing with ice-cold PBS (250 μL). The internalized activity was determined through incubation of the cells in NaOH (250 μL, 1.0 m) and the combination with the fraction of the subsequent washing step with again NaOH (250 μL, 1.0 m). Each experiment (control and blockade) was performed in triplicate for each time point. Free, surface bound and internalized activity was quantified in a γ-counter.

[2] = Lipophilicity, logP in n-octanol/PBS of radiolabeled PSMA inhibitors; assay type: physicochemical; details: pH 7.4
Procedure: The radiolabeled PSMA inhibitor (0.5 to 1.0 MBq) dissolved in PBS (500 μL, pH=7.4), was added to n-octanol (500 μL) in a reaction vial (1.5 mL), which was rigorously vortexed for 3 min (n=6). For quantitative phase separation, the mixture was centrifuged at 6,000 g for 5 min (Biofuge 15, Heraus Sepatech, Osterode, Germany). The activity from samples of each phase (100 μL) were measured in a γ-counter to obtain the log P(o/w) value.

[3] = tested on: LNCaP-tumor xenograft; test: Biodistribution in LNCaP-tumor xenograft bearing CB-17 SCID mice; assay type: in vivo
Procedure: All animal experiments were carried out in accordance with the general animal welfare regulations in Germany (Deutsches Tierschutzgesetz, approval #55.2-1-54-2532-71-13). For the tumor model, LNCaP cells (approx. 10^7 cells) were suspended in serum-free DMEM-F12 medium and Matrigel (1/1; v/v) (BD Biosciences, Germany) and inoculated onto the right shoulder of male, 6 to 8 weeks old CB-17 SCID mice (Charles River Laboratories, Sulzfeld, Germany). Animals were used after the tumor size reached 4 to 8 mm in diameter for experiments.

[4] = target: T1, HSA (Homo sapiens, UniProt P02768); test: HSA binding on Chiralpak HSA column; assay type: in vitro ADME
T1 construct: purchased Daicel Chemical Industries / Chiral Technologies Europe (Illkirch, France)
Procedure: HSA binding experiments were performed as previously described. […] For each run, 10 μL of the solution containing the inhibitor was injected into the RP-HPLC system and the retention time measured. […] Non-linear regression was established with OriginPro 2016G.

[5] = male, CB-17 SCID, mouse, in vivo, 1 h
[6] = after logarithmic plotting and calibration (n = 1)
[7] = distribution coefficient in n-octanol/PBS, radiolabeled inhibitor, mean ± SD (n = 6), read-out: logP

T1 sequence (P02768 25-609): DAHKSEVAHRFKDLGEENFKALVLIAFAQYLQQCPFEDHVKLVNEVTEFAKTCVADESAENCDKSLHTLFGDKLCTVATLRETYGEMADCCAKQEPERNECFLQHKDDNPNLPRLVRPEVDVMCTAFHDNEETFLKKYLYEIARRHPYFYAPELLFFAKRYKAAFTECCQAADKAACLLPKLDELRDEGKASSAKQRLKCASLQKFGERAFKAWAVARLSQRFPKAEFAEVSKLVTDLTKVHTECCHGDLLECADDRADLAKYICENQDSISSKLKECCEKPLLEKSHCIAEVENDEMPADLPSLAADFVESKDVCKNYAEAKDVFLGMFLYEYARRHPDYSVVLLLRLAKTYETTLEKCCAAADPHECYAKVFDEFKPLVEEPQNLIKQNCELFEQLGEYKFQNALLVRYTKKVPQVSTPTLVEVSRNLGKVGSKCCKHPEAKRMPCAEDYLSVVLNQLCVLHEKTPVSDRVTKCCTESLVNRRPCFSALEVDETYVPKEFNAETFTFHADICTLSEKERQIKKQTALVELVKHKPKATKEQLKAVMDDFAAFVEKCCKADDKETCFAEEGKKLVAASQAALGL

## Nc1ccc(C[C@@H](NC(=O)CCC(C(=O)O)N2CCN(CC(=O)O)CCN(CC(=O)O)CCN(CC(=O)O)CC2)C(=O)N[C@H](Cc2ccc(O)cc2)C(=O)N[C@H](Cc2ccc3ccccc3c2)C(=O)N[C@H](CCCCNC(=O)CCC(=O)NCCCC(NC(=O)CC[C@H](NC(=O)N[C@@H](CCC(=O)O)C(=O)O)C(=O)O)C(=O)O)C(=O)O)cc1 (stereo in doubt) [PSMA-49, DOTAGA-F(4-NH2)y-2-nal-k(Suc-N^5-orn-C^4-EuE)]
[1]
  Internalization: 245.0 ± 4.2%
[2]
  logP: -4.01 ± 0.11
[3]; [5]
  adrenal gland: 5.66 ± 1.66 % ID/g
  blood: 0.46 ± 0.06 % ID/g
  bone: 0.29 ± 0.14 % ID/g
  brain: 0.03 ± 0.01 % ID/g
  heart: 0.57 ± 0.11 % ID/g
  intestine: 0.30 ± 0.08 % ID/g
  liver: 0.99 ± 0.19 % ID/g
  lung: 1.47 ± 0.25 % ID/g
  muscle: 0.17 ± 0.02 % ID/g
  pancreas: 0.56 ± 0.07 % ID/g
  spleen: 20.53 ± 6.79 % ID/g
  stomach: 0.35 ± 0.10 % ID/g
  tumor: 8.21 ± 0.23 % ID/g
  tumor/blood: 17.8
  tumor/kidney: 0.05
  tumor/muscle: 48.3

## O=C(O)CC[C@H](NC(=O)N[C@@H](CCC(=O)NC(CCCNC(=O)CCC(=O)NCCCC[C@@H](NC(=O)[C@@H](Cc1ccc2ccccc2c1)NC(=O)[C@@H](Cc1ccc(O)cc1)NC(=O)CCC(C(=O)O)N1CCN(CC(=O)O)CCN(CC(=O)O)CCN(CC(=O)O)CC1)C(=O)O)C(=O)O)C(=O)O)C(=O)O (some centres unmarked) [PSMA-46, DOTAGA-y-2-nal-k(Suc-N^5-orn-C^4-EuE)]
[1]
  Internalization: 216.2 ± 9.2%
[4]; [6]
  HSA (albumin binding): 57.7%
[2]; [7]
  logP: -4.21 ± 0.08

## O=C(O)CC[C@H](NC(=O)N[C@@H](CCC(=O)NC(CCCNC(=O)CCC(=O)NCCCC[C@@H](NC(=O)[C@@H](Cc1ccc2ccccc2c1)NC(=O)[C@@H](Cc1ccc(O)cc1)NC(=O)[C@H](Cc1ccc([N+](=O)[O-])cc1)NC(=O)CCC(C(=O)O)N1CCN(CC(=O)O)CCN(CC(=O)O)CCN(CC(=O)O)CC1)C(=O)O)C(=O)O)C(=O)O)C(=O)O (some centres unmarked) [PSMA-52, DOTAGA-F(4-NO2)-y-2-nal-k(Suc-N^5-orn-C^4-EuE)] ({DOTAGA}-[Phe(4-NO2)][dY][d2Nal][dK]([Suc-ξOrn(Nα-γGlu(Nα-CO-Glu))])-OH)
[1]
  Internalization: 229.9 ± 8.0%
[4]; human, 0.5 mg/mL
  HSA (albumin binding): 95.4%
[2]
  logP: -4.11 ± 0.07

## O=C(O)CC[C@H](NC(=O)N[C@@H](CCC(=O)NC(CCCNC(=O)CCC(=O)NCCCC[C@@H](NC(=O)[C@@H](Cc1ccc2ccccc2c1)NC(=O)[C@@H](Cc1ccc(O)cc1)NC(=O)[C@H](CNC(=O)CCC(C(=O)O)N1CCN(CC(=O)O)CCN(CC(=O)O)CCN(CC(=O)O)CC1)NC(=O)c1ccc([N+](=O)[O-])cc1[N+](=O)[O-])C(=O)O)C(=O)O)C(=O)O)C(=O)O (some centres unmarked) [PSMA-53, 2,4-DNBA-Dap(DOTAGA)-y-2-nal-k(Suc-N^5-orn-C^4-EuE)] (X1-[Dap](DOTAGA)[dY][d2Nal][dK]([Suc-ξOrn(Nα-γGlu(Nα-CO-Glu))])-OH)
[1]
  Internalization: 293.6 ± 10.0%
[4]; [6]
  HSA (albumin binding): 95.9%
[2]; [7]
  logP: -4.08 ± 0.04

## Nc1ccc(C[C@H](NC(=O)CCC(C(=O)O)N2CCN(CC(=O)O)CCN(CC(=O)O)CCN(CC(=O)O)CC2)C(=O)N[C@H](Cc2ccc(O)cc2)C(=O)N[C@H](Cc2ccc3ccccc3c2)C(=O)N[C@H](CCC(=O)Nc2ccc(C(=O)NCCCC(NC(=O)CC[C@H](NC(=O)N[C@@H](CCC(=O)O)C(=O)O)C(=O)O)C(=O)O)cc2)C(=O)O)cc1 (some centres unmarked) [PSMA-60, DOTAGA-F(4-NH2)y-2-nal-e(Abz-N^5-orn-C^4-EuE)]
[1]
  Internalization: 267.4 ± 7.9%
[2]
  logP: -3.85 ± 0.13

## Nc1ccc(C[C@H](NC(=O)CCC(C(=O)O)N2CCN(CC(=O)O)CCN(CC(=O)O)CCN(CC(=O)O)CC2)C(=O)N[C@H](Cc2ccc(O)cc2)C(=O)N[C@H](Cc2ccc3ccccc3c2)C(=O)N[C@H](CCCCNC(=O)[C@@H](CC(=O)NCCCC(NC(=O)CC[C@H](NC(=O)N[C@@H](CCC(=O)O)C(=O)O)C(=O)O)C(=O)O)NC(=O)c2ccc([N+](=O)[O-])cc2[N+](=O)[O-])C(=O)O)cc1 (some centres unmarked) [PSMA-61, DOTAGA-F(4-NH2)y-2-nal-k(d[N^5-orn-C^4-EuE]-2,4-DNBA)]
[1]
  Internalization: 359.5 ± 22.6%
[4]; [6]
  HSA (albumin binding): 63.3%
[2]; [7]
  logP: -4.07 ± 0.05
[3]; 1 h p.i., ^177Lu-labeled, n = 4
  tumor: 8.00±0.75 % ID/g
[3]; 24 h p.i., ^177Lu-labeled, n = 4
  tumor: 7.70±1.35 % ID/g

## O=C(O)CC[C@H](NC(=O)N[C@@H](CCC(=O)NC(CCCNC(=O)c1ccc(NC(=O)CC[C@@H](NC(=O)[C@@H](Cc2ccc3ccccc3c2)NC(=O)[C@@H](Cc2ccc(O)cc2)NC(=O)[C@H](CNC(=O)CCC(C(=O)O)N2CCN(CC(=O)O)CCN(CC(=O)O)CCN(CC(=O)O)CC2)NC(=O)c2ccc([N+](=O)[O-])cc2[N+](=O)[O-])C(=O)O)cc1)C(=O)O)C(=O)O)C(=O)O (some centres unmarked) [PSMA-65, 2,4-DNBA-Dap(DOTAGA)y-2-nal-e(Abz-N^5-orn-C^4-EuE)]
[1]; listed as [^nat/177Lu]PSMA-65
  Internalization: 340.2 ± 19.9% and 340.2 ± 18.9%
[4]; after logarithmic plotting and calibration (n = 1), listed as [^nat/177Lu]PSMA-65
  HSA (albumin binding): 98.7%
[2]; [7]
  logP: -4.15 ± 0.08

## Nc1ccc(C[C@H](NC(=O)CCC(C(=O)O)N2CCN(CC(=O)O)CCN(CC(=O)O)CCN(CC(=O)O)CC2)C(=O)N[C@H](Cc2ccc(O)cc2)C(=O)N[C@H](Cc2ccc3ccccc3c2)C(=O)N[C@H](CCCCNC(=O)[C@@H](CC(=O)NCCCC(NC(=O)CC[C@H](NC(=O)N[C@@H](CCC(=O)O)C(=O)O)C(=O)O)C(=O)O)NC(=O)c2cc(O)cc(O)c2)C(=O)O)cc1 (some centres unmarked) [PSMA-78, DOTAGA-F(4-NH2)y-2-nal-k(d[N^5-orn-C^4-EuE]-3,5-DHBA)]
[1]
  Internalization: 289.0 ± 6.2%
